Consider 31 molecules from US9802937B2, “Substituted pyrazolo{4,3-D}pyrimidines as kinase inhibitors” (ORIGENIS GMBH, priority 2011, dated 2017).

The structures appear in SMILES notation. A value given as a limit tells only on which side of the number the result lay.

In the assay the target is T1, SYK kinase (Homo sapiens, UniProt P43405).
T1 construct: purchased Invitrogen, Carlsbad
The assay is described as follows: SYK Assay (OMNIA KINASE ASSAY, SOX peptide fluorescence). The assay is classed as biochemical. The note with it: apparent Ki calculated from the IC50 using the Cheng-Prusoff equation; 1 mM ATP, 30° C.; read-out: SYK Activities: Ki. As to the method: In the assay OMNIA® KINASE ASSAY by Invitrogen Corporation (Carlsbad) the effect of invention of a compound on the phosphorylation is determined by measurement of fluorescence intensity of a chelation-enhanced fluorophore called SOX. Upon phosphorylation of the peptide by the kinase of interest, Mg2+ is chelated to form a bridge between the SOX moiety and the phosphate group that is transferred to the specific tyrosine on the peptide. The fluorescence intensity is directly proportional to the amount of peptide phosphorylation.
To the wells of an 384 well small volume plate (Greiner, Frickenhausen) are added (i) the compound under test in 5% DMSO/distilled water (2 μl), (ii) 16 μl of the master mix containing ATP, DTT, Kinase Reaction Buffer, Omina Peptide Substrate Tyr 7 resulting in a final concentration of 1 mM ATP, 0.2 mM DTT and 10 μM Peptide Substrate.
The Master Mix and the assay plate was incubated to reaction temperature before the measurement (30° C.). The reaction was started with addition of (iii) 2 μl 4 μg/ml SYK kinase (Invitrogen, Carlsbad). During measurement fluorescence intensitiy readings were collected using a TECAN M1000 at a wavelength of λex 360/λem 485 nm every 30 s for 30 minutes. The reaction velocity was plotted versus the inhibitor concentration to determine the […] using XLFit 5.0 (IDBS, Guildford) to fit to a sigmoidal dose response curve, and the apparent Ki values were calculated from the IC50 using the Cheng-Prusoff equation (Cheng, Y.; Prusoff, W. H. Biochem. Pharmacol. 22, 3099-3108, 1973).
In the case of `CCN1CCN(c2ccc(Nc3nc(-c4cn5ccccc5n4)nc4cn[nH]c34)cc2)CC1` [Example #125, N-(4-(4-ethylpiperazin-1-yl)phenyl)-5-(imidazo[1,2-a]pyridin-2-yl)-1H-pyrazolo[4,3-d]pyrimidin-7-amine], the Ki is 10 to 100 nM.

`O=C(O)c1ccc(Nc2nc(-c3cn4ccccc4n3)nc3cn[nH]c23)cc1` [Example #128, 4-((5-(imidazo[1,2-a]pyridin-2-yl)-1H-pyrazolo[4,3-d]pyrimidin-7-yl)amino)benzoic-acid]: the Ki is less than 10 nM.

`COc1ccc(Nc2nc(-c3nc4ccccc4[nH]3)nc3cn[nH]c23)cc1OC` [Example #129, 5-(1H-benzo[d]imidazol-2-yl)-N-(3,4-dimethoxyphenyl)-1H-pyrazolo[4,3-d]pyrimidin-7-amine]: the Ki was 10 to 100 nM.

In the case of `COc1ccc(Nc2nc(-c3nc4ccccc4n3C)nc3cn[nH]c23)cc1OC` [Example #130, N-(3,4-dimethoxyphenyl)-5-(1-methyl-1H-benzo[d]imidazol-2-yl)-1H-pyrazolo[4,3-d]pyrimidin-7-amine], the Ki was 100 to 1000 nM.

`Cc1cccc(NC(=O)Nc2ccc(Nc3nc(-c4ccsc4)nc4cn[nH]c34)cc2)c1` [Example #133, 1-(4-((5-(thiophen-3-yl)-1H-pyrazolo[4,3-d]pyrimidin-7-yl)amino)phenyl)-3-(m-tolyl)urea]: the Ki is 100 to 1000 nM.

Take `CN1CCN(c2ccc(Nc3nc(-c4ncc[nH]4)nc4cn[nH]c34)cc2)CC1` [Example #141, 5-(1H-imidazol-2-yl)-N-(4-(4-methylpiperazin-1-yl)phenyl)-1H-pyrazolo[4,3-d]pyrimidin-7-amine]: the Ki is 10 to 100 nM.

Turning to `CC1(C)CNc2cc(Nc3nc(-c4ccsc4)nc4cn[nH]c34)ccc2S1` [Example #148, 2,2-dimethyl-N-(5-(thiophen-3-yl)-1H-pyrazolo[4,3-d]pyrimidin-7-yl)-3,4-dihydro-2H-benzo[b][1,4]thiazin-6-amine], the Ki was 100 to 1000 nM.

Turning to `CN1CCN(c2ccc(Nc3nc(-c4cccc(-c5nn[nH]n5)c4)nc4cn[nH]c34)cc2)CC1` [Example #149, 5-(3-(2H-tetrazol-5-yl)phenyl)-N-(4-(4-methylpiperazin-1-yl)phenyl)-1H-pyrazolo[4,3-d]pyrimidin-7-amine], the Ki is less than 10 nM.

For the molecule `CN(C)CCNc1nc(C(=O)c2ccccc2)nc2cn[nH]c12` [Example #150, (7-((2-(dimethylamino)ethyl)amino)-1H-pyrazolo[4,3-d]pyrimidin-5-yl)(phenyl)methanone], the Ki is 100 to 1000 nM.

As to `CN1CCC(CNc2nc(C(=O)c3ccccc3)nc3cn[nH]c23)CC1` [Example #151, (7-(((1-methylpiperidin-4-yl)methyl)amino)-1H-pyrazolo[4,3-d]pyrimidin-5-yl)(phenyl)methanone], the Ki was less than 10 nM.

Take `CN1CCN(c2ccc(Nc3nc(C(=O)c4ccccc4)nc4cn[nH]c34)cc2)CC1` [Example #152, (7-((4-(4-methylpiperazin-1-yl)phenyl)amino)-1H-pyrazolo[4,3-d]pyrimidin-5-yl)(phenyl)methanone]: the Ki is 10 to 100 nM.

On to `COc1ccc(Nc2nc(C(=O)c3ccccc3)nc3cn[nH]c23)cc1OC` [Example #153, (7-((3,4-dimethoxyphenyl)amino)-1H-pyrazolo[4,3-d]pyrimidin-5-yl)(phenyl)methanone], for which the Ki was 100 to 1000 nM.

`O=C1CSc2ccc(Nc3nc(-c4cccs4)nc4cn[nH]c34)cc2N1` [Example #165, 6-((5-(thiophen-2-yl)-1H-pyrazolo[4,3-d]pyrimidin-7-yl)amino)-2H-benzo[b][1,4]thiazin-3(4H)-one]: the Ki was 10 to 100 nM.

Turning to `CC(C)(C#N)c1ccc(Nc2nc(-c3cccs3)nc3cn[nH]c23)cc1` [Example #167, 2-methyl-2-(4-((5-(thiophen-2-yl)-1H-pyrazolo[4,3-d]pyrimidin-7-yl)amino)phenyl)propanenitrile], the Ki was 10 to 100 nM.

For the molecule `COc1ccc(-c2nc(Nc3ccc(N4CCSCC4)cc3)c3[nH]ncc3n2)cc1` [Example #168, 5-(4-methoxyphenyl)-N-(4-thiomorpholinophenyl)-1H-pyrazolo[4,3-d]pyrimidin-7-amine], the Ki was 10 to 100 nM.

Regarding `CN1CCN(c2ccc(Nc3nc(-c4cccc(OCC(=O)O)c4)nc4cn[nH]c34)cc2)CC1` [Example #174, 2-(3-(7-((4-(4-methylpiperazin-1-yl)phenyl)amino)-1H-pyrazolo[4,3-d]pyrimidin-5-yl)phenoxy)acetic acid], the Ki was 100 to 1000 nM.

As to `CN1CCN(c2ccc(Nc3nc(-c4cccc(CC(=O)O)c4)nc4cn[nH]c34)cc2)CC1` [Example #176, 2-(3-(7-((4-(4-methylpiperazin-1-yl)phenyl)amino)-1H-pyrazolo[4,3-d]pyrimidin-5-yl)phenyl)acetic acid], the Ki was 10 to 100 nM.

Regarding `CN1CCN(c2ccc(Nc3nc(-c4cccc(C(=O)O)n4)nc4cn[nH]c34)cc2)CC1` [Example #177, 6-(7-((4-(4-methylpiperazin-1-yl)phenyl)amino)-1H-pyrazolo[4,3-d]pyrimidin-5-yl)picolinic acid], the Ki is 10 to 100 nM.

Consider `FS(F)(F)(F)(F)c1ccc(Nc2nc(-c3ccsc3)nc3cn[nH]c23)cc1` [Example #178, N-(4-(pentafluorosulfanyl)phenyl)-5-(thiophen-3-yl)-1H-pyrazolo[4,3-d]pyrimidin-7-amine], for which the Ki was 100 to 1000 nM.

Turning to `Cc1ccc(CNCc2cccc(-c3nc(Nc4ccc(N5CCN(C)CC5)cc4)c4[nH]ncc4n3)c2)cc1` [Example #180, 5-(3-(((4-methylbenzyl)amino)methyl)phenyl)-N-(4-(4-methylpiperazin-1-yl)phenyl)-1H-pyrazolo[4,3-d]pyrimidin-7-amine], the Ki was 10 to 100 nM.

Take `CN(C)CCCOc1cccc(-c2nc(Nc3ccc(N4CCN(C)CC4)cc3)c3[nH]ncc3n2)c1` [Example #181, 5-(3-(3-(dimethylamino)propoxy)phenyl)-N-(4-(4-methylpiperazin-1-yl)phenyl)-1H-pyrazolo[4,3-d]pyrimidin-7-amine]: the Ki was 10 to 100 nM.

In the case of `CC(=O)N1CCN(c2ccc(Nc3nc(-c4cccc(-c5nn[nH]n5)c4)nc4cn[nH]c34)cc2)CC1` [Example #192, 1-(4-(4-((5-(3-(2H-tetrazol-5-yl)phenyl)-1H-pyrazolo[4,3-d]pyrimidin-7-yl)amino)phenyl)piperazin-1-yl)ethan-1-one], the Ki was less than 10 nM.

For `COC(=O)c1cccc(-c2nc(Nc3ccc4c(c3)NC(=O)CC4)c3[nH]ncc3n2)c1` [Example #210, methyl 3-(7-((2-oxo-1,2,3,4-tetrahydroquinolin-7-yl)amino)-1H-pyrazolo[4,3-d]pyrimidin-5-yl)benzoate], the Ki is 10 to 100 nM.

As to `COC(=O)c1cccc(-c2nc(Nc3ccc4c(c3)NC(=O)CO4)c3[nH]ncc3n2)c1` [Example #211, methyl 3-(7-((3-oxo-3,4-dihydro-2H-benzo[b][1,4]oxazin-6-yl)amino)-1H-pyrazolo[4,3-d]pyrimidin-5-yl)benzoate], the Ki is 10 to 100 nM.

For `O=C1COc2ccc(Nc3nc(-c4cccc(C(=O)O)c4)nc4cn[nH]c34)cc2N1` [Example #212, 3-(7-((3-oxo-3,4-dihydro-2H-benzo[b][1,4]oxazin-6-yl)amino)-1H-pyrazolo[4,3-d]pyrimidin-5-yl)benzoic acid], the Ki was 10 to 100 nM.

Consider `COC(=O)c1ccc(-c2nc(Nc3ccc(N4CCN(C)CC4)cc3)c3[nH]ncc3n2)cc1` [Example #213, methyl 4-(7-((4-(4-methylpiperazin-1-yl)phenyl)amino)-1H-pyrazolo[4,3-d]pyrimidin-5-yl)benzoate], for which the Ki was less than 10 nM.

As for `COC(=O)c1ccc(-c2nc(Nc3ccc4c(c3)NC(=O)CC4)c3[nH]ncc3n2)cc1` [Example #215, methyl 4-(7-((2-oxo-1,2,3,4-tetrahydroquinolin-7-yl)amino)-1H-pyrazolo[4,3-d]pyrimidin-5-yl)benzoate], the Ki was 100 to 1000 nM.

For the molecule `COC(=O)c1cccc(-c2nc(Nc3ccc4c(c3)NC(=O)CS4)c3[nH]ncc3n2)c1` [Example #216, methyl 3-(7-((3-oxo-3,4-dihydro-2H-benzo[b][1,4]thiazin-6-yl)amino)-1H-pyrazolo[4,3-d]pyrimidin-5-yl)benzoate], the Ki was 10 to 100 nM.

For `COC(=O)c1cccc(-c2nc(Nc3ccc4c(c3)NC(=O)CCC4)c3[nH]ncc3n2)c1` [Example #217, methyl 3-(7-((2-oxo-2,3,4,5-tetrahydro-1H-benzo[b]azepin-8-yl)amino)-1H-pyrazolo[4,3-d]pyrimidin-5-yl)benzoate], the Ki was 100 to 1000 nM.

For `COc1ccc(Nc2nc(-c3cccc(S(F)(F)(F)(F)F)c3)nc3cn[nH]c23)cc1OC` [Example #219, N-(3,4-dimethoxyphenyl)-5-(3-(pentafluorosulfanyl)phenyl)-1H-pyrazolo[4,3-d]pyrimidin-7-amine], the Ki is 100 to 1000 nM.

For `FS(F)(F)(F)(F)c1cccc(-c2nc(Nc3ccc(N4CCOCC4)cc3)c3[nH]ncc3n2)c1` [Example #220, 5-(3-(pentafluorosulfanyl)phenyl)-N-(4-morpholinophenyl)-1H-pyrazolo[4,3-d]pyrimidin-7-amine], the Ki is 10 to 100 nM.
